Common to all, as to type: functional, cell-based
For one assay, the system named is CCRF-CEM. Briefly: Concentration required to inhibit CCRF-CEM (human leukemia) cell lines.
Another assay concerns HT-29. Put plainly: Concentration required to inhibit HT-29 (human colon adenocarcinoma) cell lines.
The test system of a further assay is L1210. Briefly: Concentration required to inhibit L1210 (mouse lymphocytic leukemia) cell lines.
In another assay the test system is LY3.7.2C TK-/- cell line. Briefly: Concentration required to inhibit LY3.7.2C TK-/-(mouse lymphoma, thymidine kinase deficient) cell lines.

This note sets out measurements from ChEMBL document CHEMBL1130681, “Synthesis of 5-substituted quinazolinone derivatives and their inhibitory activity in vitro” (Bioorg Med Chem Lett, 1998).

By IC50 is commonly meant the point on the concentration scale where inhibition reaches its midpoint. Read a low IC50 as greater potency in that assay. In the case of `Cc1ccc2nc(N)nc(O)c2c1Sc1ccc(C(=O)N[C@H](C(=O)O)c2cccc(C(=O)O)c2)cc1`, the IC50 in the assay on CCRF-CEM stood at 50 nM; with HT-29, 1.2 µM; in the assay with L1210, 500 nM; with LY3.7.2C TK-/- cell line, 700 nM.
The corresponding values for `Cc1ccc2nc(N)[nH]c(=O)c2c1Sc1ccncc1` [NOLATREXED] are 800 nM, 3.7 µM, 1100 nM and 1500 nM.
The corresponding values for `Cc1ccc2nc(N)nc(O)c2c1Sc1ccc(C(=O)N[C@H](C(=O)O)c2cccc(O)c2)cc1` are 3400 nM, 17 µM, 700 nM and 600 nM.
Turning to `Cc1ccc2nc(N)nc(O)c2c1Sc1ccc(C(=O)N[C@H](C(=O)O)c2ccccc2)cc1`, the IC50 in the assay with CCRF-CEM was 5400 nM; in the assay on HT-29, greater than 20 µM; in the assay on L1210, 2000 nM; in the assay with LY3.7.2C TK-/- cell line, 800 nM.
The corresponding values for `COC(=O)[C@@H](NC(=O)c1ccc(Sc2c(C)ccc3nc(N)nc(O)c23)cc1)c1cccc(O)c1` are 1500 nM, 8.4 µM, 2000 nM and 300 nM.
Consider `COC(=O)[C@@H](NC(=O)c1ccc(Sc2c(C)ccc3nc(N)nc(O)c23)cc1)c1ccccc1`, for which the IC50 was determined as 200 nM in the assay with CCRF-CEM, 0.6 µM with HT-29, 400 nM in the assay on L1210 and 500 nM in the assay on LY3.7.2C TK-/- cell line.
The corresponding values for `COC(=O)c1cccc([C@H](NC(=O)c2ccc(Sc3c(C)ccc4nc(N)nc(O)c34)cc2)C(=O)OC)c1` are 200 nM, 0.6 µM, 700 nM and 700 nM.
